Here are results for one molecule from patent publication US20050287114A1, “Water-soluble polymeric bone-targeting drug delivery system” (University of Utah Research Foundation, priority 2003, published 2005).

The nature of data set [1]: water solubility of lyophilized product. The data set is classed as physicochemical. As for the experimental part: TC was first transformed into anhydrotetracycline; an amino group was then introduced into the D ring. Stoel, L. et al.(1976) J. Pharm. Sci. 65, 1794-1799; Menachery, M. D. & Cava, M. P. (1984) Can. J. Chem. 62, 2583-2584. Because of the low activity of the aromatic amine, a glycine was coupled to the D ring of the TC molecule in order to introduce a more reactive primary amine by the following procedure. Boc-glycine (192.7 mg, 1.1 mmol), 9-NH2-ATC (514 mg, 1 mmol) and methyl morpholine (MM, 220 μL, 2 mmol) were dissolved in DMF (8 mL) and stirred at 0° C. for 1 h. DCC (227 mg, 1.1 mmol, in 2 mL DCM) was added to the solution and stirred for 1 h. The temperature of the solution was then raised to R.T. and stirred overnight. The resulting suspension was filtered. The solid (product and DCU) was washed three times with ethyl acetate and dried under vacuum. The Boc protection was removed with TFA. DCU was removed to yield 360 mg of 9-Gly-ATC (lyophilized), which is water-soluble.

Data set [2] in a line: in vitro bone-targeting capacity: binding of conjugates to hydroxyapatite. As to conditions: conjugate 1 mg/mL in phosphate buffered saline, 5 mg HA, 1 h at R.T., UV absorbance of supernatant.
Procedure: Conjugates were dissolved in phosphate buffered saline to give a concentration of 1 mg/mL. The conjugate solution (100 μL) and 100 μL of the same buffer were incubated with 5 mg of hydroxyapatite (HA, Bio-Gel HTP, DNA grade; BIO-RAD, Hercules, Calif.) for 1 h at R.T. The solution was then centrifuged. The UV absorbance at certain wavelengths (FITC, 490 nm; 9-Gly-ATC, 450 nm) of the supernatant was monitored with an ELISA plate reader. Background correction was applied. The data presented is the average of three samples. The binding efficiency is expressed as the percentage of conjugates bound to HA (FIG. 4).

The structures appear in SMILES notation.

For the molecule `Cc1c2c(c(O)c3c(O)c(NC(=O)CN)ccc13)C(=O)C1(O)C(=O)C(C(N)=O)=C(O)C(N(C)C)C1C2` (centres unmarked) [9-Gly-ATC, N-(9-aminoanhydrotetracycline)glycyl amide], the water solubility result in data set [1] is “water-soluble”. Besides, the “binding to HA (percentage of conjugates bound to HA)” value in data set [2] is “slightly lower values”.
